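All cell lines were grown in 96-well plates and treated with compound for 48 hours. Abbreviation: GI50, concentration required for 50% inhibition of growth.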 Calls of active or inactive are those of the source. Rule as the data show it: active = GI50 up to about 1.1 µM and inactive = higher.
Columns and labels:
Experiment in all cases: NCI anticancer screen, dose series, 48 h
786-0 = system: 786-0
A498 = system: A498
A549 = system: A549
ACHN = system: ACHN
CAKI-1 = system: CAKI-1
CCRF-CEM = system: CCRF-CEM
COLO 205 = system: COLO 205
DLD-1 = system: DLD-1
DMS-114 = system: DMS-114
DMS-273 = system: DMS-273
EKVX = system: EKVX
HCC 2998 = system: HCC 2998
HCT-116 = system: HCT-116
HCT-15 = system: HCT-15
HL-60 = system: HL-60
HOP-18 = system: HOP-18
HOP-62 = system: HOP-62
HOP-92 = system: HOP-92
HT-29 = system: HT-29
IGROV-1 = system: IGROV-1
K562 = system: K562
KM-20L2 = system: KM-20L2
KM12 = system: KM12
LXFL 529 = system: LXFL 529
M14 = system: M14
M19-MEL = system: M19-MEL
MOLT-4 = system: MOLT-4
Malme-3M = system: Malme-3M
NCI-H226 = system: NCI-H226
NCI-H23 = system: NCI-H23
NCI-H460 = system: NCI-H460
NCI-H522 = system: NCI-H522
OVCAR-3 = system: OVCAR-3
OVCAR-4 = system: OVCAR-4
OVCAR-5 = system: OVCAR-5
OVCAR-8 = system: OVCAR-8
RPMI-8226 = system: RPMI-8226
RXF 631 = system: RXF 631
SF-268 = system: SF-268
SF-295 = system: SF-295
SF-539 = system: SF-539
SK-MEL-28 = system: SK-MEL-28
SK-MEL-2 = system: SK-MEL-2
SK-MEL-5 = system: SK-MEL-5
SK-OV-3 = system: SK-OV-3
SN12C = system: SN12C
SNB-19 = system: SNB-19
SNB-75 = system: SNB-75
SNB-78 = system: SNB-78
SR = system: SR
SW-620 = system: SW-620
TK-10 = system: TK-10
U-251 = system: U-251
UACC-257 = system: UACC-257
UACC-62 = system: UACC-62
UO-31 = system: UO-31
XF498 = system: XF498

Cc1cccc(C)c1NC(=O)/C(=N/NC(N)=S)C(C)C(=O)c1ccc(Cl)cc1 (configuration not stated)
GI50 (786-0): > 100 µM (inactive) | GI50 (A498): > 100 µM (inactive) | GI50 (A549): > 100 µM (inactive) | GI50 (ACHN): > 100 µM (inactive) | GI50 (CAKI-1): > 100 µM (inactive) | GI50 (CCRF-CEM): > 100 µM (inactive) | GI50 (COLO 205): > 100 µM (inactive) | GI50 (DLD-1): > 100 µM (inactive) | GI50 (DMS-114): > 100 µM (inactive) | GI50 (DMS-273): > 100 µM (inactive) | GI50 (EKVX): > 100 µM (inactive) | GI50 (HCC 2998): > 100 µM (inactive) | GI50 (HCT-116): > 100 µM (inactive) | GI50 (HCT-15): > 100 µM | GI50 (HL-60): 93.8 µM (inactive) | GI50 (HOP-18): > 100 µM (inactive) | GI50 (HOP-62): > 100 µM (inactive) | GI50 (HOP-92): > 100 µM (inactive) | GI50 (HT-29): 75.9 µM (inactive) | GI50 (IGROV-1): > 100 µM (inactive) | GI50 (K562): > 100 µM (inactive) | GI50 (KM-20L2): > 100 µM (inactive) | GI50 (KM12): > 100 µM (inactive) | GI50 (LXFL 529): > 100 µM (inactive) | GI50 (M14): > 100 µM (inactive) | GI50 (M19-MEL): > 100 µM (inactive) | GI50 (MOLT-4): > 100 µM (inactive) | GI50 (Malme-3M): > 100 µM (inactive) | GI50 (NCI-H226): > 100 µM (inactive) | GI50 (NCI-H23): > 100 µM (inactive) | GI50 (NCI-H460): > 100 µM (inactive) | GI50 (NCI-H522): 89.9 µM (inactive) | GI50 (OVCAR-3): > 100 µM (inactive) | GI50 (OVCAR-4): 78.5 µM (inactive) | GI50 (OVCAR-5): > 100 µM (inactive) | GI50 (OVCAR-8): > 100 µM (inactive) | GI50 (RPMI-8226): > 100 µM (inactive) | GI50 (RXF 631): > 100 µM (inactive) | GI50 (SF-268): > 100 µM (inactive) | GI50 (SF-295): > 100 µM (inactive) | GI50 (SF-539): > 100 µM (inactive) | GI50 (SK-MEL-28): > 100 µM (inactive) | GI50 (SK-MEL-2): > 100 µM (inactive) | GI50 (SK-MEL-5): > 100 µM (inactive) | GI50 (SK-OV-3): > 100 µM (inactive) | GI50 (SN12C): > 100 µM (inactive) | GI50 (SNB-19): > 100 µM (inactive) | GI50 (SNB-75): > 100 µM (inactive) | GI50 (SNB-78): > 100 µM (inactive) | GI50 (SR): > 100 µM (inactive) | GI50 (SW-620): > 100 µM (inactive) | GI50 (TK-10): > 100 µM (inactive) | GI50 (U-251): > 100 µM (inactive) | GI50 (UACC-257): > 100 µM (inactive) | GI50 (UACC-62): > 100 µM (inactive) | GI50 (UO-31): > 100 µM (inactive) | GI50 (XF498): > 100 µM (inactive)
